Values quoted from earlier work as cited in patent US4686282A, “Immunotherapeutic polypeptide agents which block immune complex binding to immunoglobulin Fc receptors” (Immunetech, Inc., priority 1983, dated 1987).
Ends that are not written are not given here.

Key:
[1] = target: C1 (Homo sapiens, UniProt P02745+P02746+P02747); conditions: compared with intact monomeric IgG; Prystowsky et al. 1981, Lukas et al. 1981
[2] = system: granulocytes, monocytes and macrophages; conditions: in vitro; literature
[3] = system: human monocyte IgG Fc receptors
[4] = system: human and rodent mast cells; conditions: Stanworth et al. 1979
[5] = system: lymphocytes; conditions: Morgan, Huguli and Weigle 1982
[6] = system: local cutaneous allergic reaction (Prausnitz-Kustner); conditions: Hamburger 1975
[7] = target: T1, IgE Fc receptor of human basophils (Homo sapiens, UniProt P12319); conditions: Plummer et al. 1983
T1 construct: host or cells: human basophils
T1 sequence (P12319 26-257): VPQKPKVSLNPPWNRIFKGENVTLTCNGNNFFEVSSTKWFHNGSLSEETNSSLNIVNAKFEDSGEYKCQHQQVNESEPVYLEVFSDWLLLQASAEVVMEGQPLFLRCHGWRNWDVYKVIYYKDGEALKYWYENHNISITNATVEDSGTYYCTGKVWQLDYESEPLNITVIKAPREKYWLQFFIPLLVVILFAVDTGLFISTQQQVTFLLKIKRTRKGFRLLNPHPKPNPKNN
T1 sequence (Q01362 1-244 partner): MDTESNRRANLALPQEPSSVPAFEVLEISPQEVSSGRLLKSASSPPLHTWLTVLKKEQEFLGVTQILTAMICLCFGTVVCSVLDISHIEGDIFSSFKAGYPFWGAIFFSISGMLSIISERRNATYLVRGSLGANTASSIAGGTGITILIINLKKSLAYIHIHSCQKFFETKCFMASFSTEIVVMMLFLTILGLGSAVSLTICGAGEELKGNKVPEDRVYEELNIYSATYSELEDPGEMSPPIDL
T1 sequence (P30273 19-86 partner): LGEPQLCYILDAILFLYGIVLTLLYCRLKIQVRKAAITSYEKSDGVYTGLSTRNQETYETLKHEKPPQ

[8] = humans, injection by the subcutaneous route

Chain of C1 (P02745 23-245): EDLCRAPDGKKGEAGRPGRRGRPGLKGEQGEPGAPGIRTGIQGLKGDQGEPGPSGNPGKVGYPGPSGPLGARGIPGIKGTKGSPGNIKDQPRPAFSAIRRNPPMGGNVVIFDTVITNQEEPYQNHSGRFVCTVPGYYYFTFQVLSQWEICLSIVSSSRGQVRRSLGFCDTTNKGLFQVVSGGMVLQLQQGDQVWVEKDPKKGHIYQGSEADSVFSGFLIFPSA
Chain of C1 (P02746 28-253): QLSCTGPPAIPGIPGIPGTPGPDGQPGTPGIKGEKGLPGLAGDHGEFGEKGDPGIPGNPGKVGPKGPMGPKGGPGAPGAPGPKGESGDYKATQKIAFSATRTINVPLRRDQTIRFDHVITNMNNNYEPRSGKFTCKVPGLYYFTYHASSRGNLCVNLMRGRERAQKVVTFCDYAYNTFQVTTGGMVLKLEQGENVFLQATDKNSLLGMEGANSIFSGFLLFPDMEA
Chain of C1 (P02747 29-245): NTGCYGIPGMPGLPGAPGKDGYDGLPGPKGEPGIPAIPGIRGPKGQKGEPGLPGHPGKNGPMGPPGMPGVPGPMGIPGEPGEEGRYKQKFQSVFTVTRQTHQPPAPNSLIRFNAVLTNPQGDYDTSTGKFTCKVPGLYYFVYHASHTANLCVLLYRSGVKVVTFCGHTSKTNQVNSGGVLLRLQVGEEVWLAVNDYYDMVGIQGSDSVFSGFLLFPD
Chain of C1 (P00736 18-705 partner): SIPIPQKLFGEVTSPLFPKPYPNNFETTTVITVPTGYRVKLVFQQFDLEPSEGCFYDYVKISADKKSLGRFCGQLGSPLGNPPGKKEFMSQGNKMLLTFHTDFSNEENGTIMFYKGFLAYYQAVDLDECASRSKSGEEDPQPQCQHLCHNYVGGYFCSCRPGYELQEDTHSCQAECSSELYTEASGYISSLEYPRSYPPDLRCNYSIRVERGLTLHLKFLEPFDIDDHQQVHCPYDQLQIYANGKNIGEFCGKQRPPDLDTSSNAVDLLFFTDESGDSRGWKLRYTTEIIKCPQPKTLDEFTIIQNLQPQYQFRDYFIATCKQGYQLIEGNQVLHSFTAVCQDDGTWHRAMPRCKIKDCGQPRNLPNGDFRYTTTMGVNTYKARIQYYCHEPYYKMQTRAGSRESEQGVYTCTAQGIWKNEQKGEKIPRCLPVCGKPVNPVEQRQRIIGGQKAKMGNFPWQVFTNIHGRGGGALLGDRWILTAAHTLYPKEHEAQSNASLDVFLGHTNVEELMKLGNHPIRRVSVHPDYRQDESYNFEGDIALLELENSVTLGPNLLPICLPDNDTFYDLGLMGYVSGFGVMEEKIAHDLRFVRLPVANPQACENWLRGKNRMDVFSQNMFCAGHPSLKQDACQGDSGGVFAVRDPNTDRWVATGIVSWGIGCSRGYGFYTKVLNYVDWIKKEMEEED
Chain of C1 (P09871 16-688 partner): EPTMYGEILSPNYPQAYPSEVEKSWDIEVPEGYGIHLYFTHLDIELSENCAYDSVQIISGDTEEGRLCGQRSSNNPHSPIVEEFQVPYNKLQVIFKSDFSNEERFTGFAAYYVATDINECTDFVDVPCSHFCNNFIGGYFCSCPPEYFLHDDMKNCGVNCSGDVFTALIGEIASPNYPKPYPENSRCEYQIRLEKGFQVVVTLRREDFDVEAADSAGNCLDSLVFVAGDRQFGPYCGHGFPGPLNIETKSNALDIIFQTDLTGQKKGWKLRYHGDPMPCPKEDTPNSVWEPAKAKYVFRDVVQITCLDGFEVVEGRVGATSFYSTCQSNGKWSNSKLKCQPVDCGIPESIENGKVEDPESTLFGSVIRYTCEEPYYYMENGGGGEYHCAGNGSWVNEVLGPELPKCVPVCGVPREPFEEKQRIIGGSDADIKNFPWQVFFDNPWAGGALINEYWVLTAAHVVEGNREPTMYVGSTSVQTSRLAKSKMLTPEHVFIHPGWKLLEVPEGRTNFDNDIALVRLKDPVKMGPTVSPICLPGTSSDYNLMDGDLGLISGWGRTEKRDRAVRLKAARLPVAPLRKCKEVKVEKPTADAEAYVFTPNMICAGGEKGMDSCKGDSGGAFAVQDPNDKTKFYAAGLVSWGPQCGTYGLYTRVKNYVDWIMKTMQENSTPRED

In the case of “Thr-Lys-Pro-Arg (TKPR; printed: Thr-Lys-Pro-Arg) [Tuftsin]”, the “inhibitors of C1-mediated hemolysis” value [1] is listed as “less active”, the phagocytosis stimulating ability [2] is listed as “active at nanomolar concentrations” and the “inhibits human IgG binding to human monocyte IgG Fc receptors” value ([3]; Ratcliffe and Stanworth 1982 and ourselves) is listed as “competitively inhibits”.
For GVQVHNAKTK, the “inhibitors of C1-mediated hemolysis” value [1] is given as “approximately as active as inhibitors as intact monomeric IgG”.
For PRKTKGSGFFVF, the “degranulation of human and rodent mast cells” value [4] is listed as “able to cause degranulation”.
In the case of Ac-Phe-Asn-Trp-Tyr-Val (Ac-FNWYV), the “inhibitors of C1-mediated hemolysis” value [1] is listed as “less active”.
In the case of QYDSTYR, the “block IgG binding to human monocyte IgG Fc receptors” value ([3]; Ratcliffe and Stanworth 1982) is listed as “slightly block”.
For “Val-Gln-Val-His-Asn-Ala-Lys-Thr-Lys-Pro-Arg-OH (VQVHNAKTKPR-OH)”, the “inhibitors of C1-mediated hemolysis” value [1] is listed as “approximately as active as inhibitors as intact monomeric IgG”.
In the case of TISKAKGQPREPQVYTLPSREEM, the “nonspecific activation of lymphocytes” value [5] is given as “ability to nonspecifically activate lymphocytes”.
For “Asp-Ser-Asp-Pro-Arg (DSDPR; printed: Asp-Ser-Asp-Pro-Arg)”, the “inhibit a local cutaneous allergic reaction (Prausnitz-Kustner)” value [6] is given as “approximately 90%”, the “block human IgE binding to basophil IgE Fc receptors” value [7] is given as “up to 70%” and the “inhibit systemic allergic disease” value [8] is given as “inhibit systemic allergic disease”.
In the case of FNWYVDGVQVHNAKTK, the “inhibitors of C1-mediated hemolysis” value [1] is listed as “less active”.
